# Values of other authors in patent US9611229B2, “1,2,3-triazole-4-amine derivatives for the treatment of sigma receptor related diseases and disorders” (LABORATORIOS DEL DR. ESTEVE S.A., priority 2013, dated 2017).
# Legend:
# [1] = biological target: sigma 2 (σ-2) site (Homo sapiens (Human), UniProt Q5BJF2)
# [2] = biological target: sigma 1 (σ-1) site (Homo sapiens (Human), UniProt Q99720)
substance,measurement,setting,value
SKF 10047,affinity for the sigma 2 (σ-2) site,[1],micromolar affinity
same,affinity for the sigma 1 (σ-1) site,[2],nanomolar affinity
